Reference: patent publication US10501460B2, “Heterocyclic compounds and uses thereof” (Plexxikon Inc., priority 2013, dated 2019)
pIC50: −log10 of the molar value.

Legend:
MV-4-11 = assay: Oncology cell growth assay MV-4-11 (CellTiter Glo, 72 hours); type: cell-based; details: Homo sapiens, MV4-11, 72 h; MV-4-11 cell growth inhibitory activity, 3d
Method in brief: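 MV-4-11 cells (MLL-AF4 AML) exposed 72 h to 8-point 1:3 titration, top final 10 μM, 0.2% DMSO. CellTiter Glo luminescence as cell-number readout, normalized to DMSO controls; pIC50 from four-parameter fit.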

bromodomain = assay: Bromodomain cell assays of Example 40 (at least one of them); type: cell-based; details: in at least one of the bromodomain cell assays described in Example 40
Method in brief: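 Growth inhibition: 3000 MV-4-11, MOLM-13, MM.1S or neuroblastoma cells/well got an 8-point 1:3 series from 10 μM top (0.2% DMSO) for 72 h, then CellTiter-Glo luminescence. Myc reporter: MV-4-11 with E-box firefly luciferase, 24 h exposure, One-Glo luminescence plus CellTiter-Fluo cell count. pIC50 from four-parameter fit.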

IC50 (MV-4-11) [µM] | pIC50 (bromodomain) | Compound
≤ 1 | > 5.00 | C=CCn1cc(-c2cn(S(=O)(=O)c3ccccc3)c3cc(-c4c(C)noc4C)cnc23)cn1 [P-0126, 4-[3-(1-allylpyrazol-4-yl)-1-(benzenesulfonyl)pyrrolo [3,2-b]pyridin-6-yl]-3,5-dimethyl-isoxazole]
≤ 1 | > 5.00 | Cc1noc(C)c1-c1cnc2c(-c3cnn(C)c3)cn(CC3CC(F)(F)C3)c2c1 [P-0213, 4-[1-[(3,3-difluorocyclobutyl)methyl]-3-(1-methylpyrazol-4-yl)pyrrolo[3,2-b]pyridin-6-yl]-3,5-dimethyl-isoxazole]
≤ 1 | > 5.00 | Cc1noc(C)c1-c1cnc2c(-c3cnn(C)c3)cn(Cc3ccccc3F)c2c1 [P-0172, 4-[1-[(2-fluorophenyl)methyl]-3-(1-methylpyrazol-4-yl)pyrrolo[3,2-b]pyridin-6-yl]-3,5-dimethyl-isoxazole]
≤ 1 | > 5.00 | C=CCn1cc(-c2cn(S(=O)(=O)C3CCCC3)c3cc(-c4c(C)noc4C)cnc23)cn1 [P-0128, 4-[3-(1-allylpyrazol-4-yl)-1-cyclopentylsulfonyl-pyrrolo [3,2-b]pyridin-6-yl]-3,5-dimethyl-isoxazole]
≤ 1 | > 5.00 | Cc1noc(C)c1-c1cnc2c(-c3cn[nH]c3)cn(C(C)c3ccccc3)c2c1 (stereo not drawn) [P-0199, 3,5-dimethyl-4-[1-(1-phenylethyl)-3-(1H-pyrazol-4-yl)pyrrolo[3,2-b]pyridin-6-yl]isoxazole]
≤ 1 | > 5.00 | Cc1noc(C)c1-c1cnc2c(-c3cnn(C)c3)cn(C(C)c3ccccc3)c2c1 (stereo not drawn) [P-0161, 3,5-dimethyl-4-[3-(1-methylpyrazol-4-yl)-1-(1-phenylethyl)pyrrolo[3,2-b]pyridin-6-yl]isoxazole]
1 to 10 | > 5.00 | Cc1noc(C)c1-c1cnc2[nH]cc(C(O)c3ccc(OCC(F)(F)F)nc3)c2c1 (stereo not drawn) [P-0012, [5-(3,5-dimethylisoxazol-4-yl)-1H-pyrrolo[2,3-b]pyridin-3-yl]-[6-(2,2,2-trifluoroethoxy)-3-pyridyl]methanol]
≤ 1 | > 5.00 | Cc1noc(C)c1-c1cnc2c(-c3cnn(C(F)F)c3)cn(Cc3ccccc3F)c2c1 [P-0176, 4-[3-[1-(difluoromethyl)pyrazol-4-yl]-1-[(2-fluorophenyl)methyl]pyrrolo[3,2-b]pyridin-6-yl]-3,5-dimethyl-isoxazole]
≤ 1 | > 5.00 | CCc1[nH]c2ncc(-c3c(C)noc3C)cc2c1C(O)c1ccccc1Cl (stereo not drawn) [P-0042, (2-chlorophenyl)-[5-(3,5-dimethylisoxazol-4-yl)-2-ethyl-1H-pyrrolo[2,3-b]pyridin-3-yl]methanol]
1 to 10 | > 5.00 | CCc1[nH]c2ncc(-c3c(C)noc3C)cc2c1C(O)c1cccc(OC(F)(F)F)c1 (stereo not drawn) [P-0043, [5-(3,5-dimethylisoxazol-4-yl)-2-ethyl-1H-pyrrolo[2,3-b]pyridin-3-yl]-[3-(trifluoromethoxy)phenyl]methanol]
≤ 1 | > 5.00 | Cc1noc(C)c1-c1cnc2[nH]cc(C(O)c3ccccc3OC(F)F)c2c1 (stereo not drawn) [P-0040, [2-(difluoromethoxy)phenyl]-[5-(3,5-dimethylisoxazol-4-yl)-1H-pyrrolo[2,3-b]pyridin-3-yl] methanol]
1 to 10 | > 5.00 | COC(c1c[nH]c2ncc(-c3c(C)noc3C)cc12)C1CCS(=O)(=O)CC1 (stereo not drawn) [P-0089, 4-[[5-(3,5-dimethylisoxazol-4-yl)-1H-pyrrolo[2,3-b]pyridin-3-yl]-methoxy-methyl]thiane 1,1-dioxide]
≤ 1 | > 5.00 | [2H]C([2H])(C1CCC(F)(F)CC1)n1cc(-c2cnn(C)c2)c2ncc(-c3c(C)noc3C)cc21 [P-0211, 4-[1-[dideuterio-(4,4-difluorocyclohexyl)methyl]-3-(1-methylpyrazol-4-yl)pyrrolo[3,2-b]pyridin-6-yl]-3,5-dimethyl-isoxazole]
≤ 1 | > 5.00 | Cc1noc(C)c1-c1cnc2[nH]cc(C(O)C3CCC(F)(F)CC3)c2c1 (stereo not drawn) [P-0030, (4,4-difluorocyclohexyl)-[5-(3,5-dimethylisoxazol-4-yl)-1H-pyrrolo[2,3-b]pyridin-3-yl] methanol]
≤ 1 | > 5.00 | Cc1noc(C)c1-c1cnc2c(-c3cn[nH]c3)cn(S(=O)(=O)c3ccccc3)c2c1 [P-0163, 4-[1-(benzenesulfonyl)-3-(1H-pyrazol-4-yl)pyrrolo[3,2-b]pyridin-6-yl]-3,5-dimethyl-isoxazole]
≤ 1 | > 5.00 | Cc1noc(C)c1-c1cnc2ccn(S(=O)(=O)C3CCCC3)c2c1 [P-0037, 4-(1-cyclopentylsulfonylpyrrolo [3,2-b]pyridin-6-yl)-3,5-dimethyl-isoxazole]
≤ 1 | > 5.00 | Cc1noc(C)c1-c1cnc2c(-c3cnn(C)c3)cn(S(=O)(=O)c3ccccc3)c2c1 [P-0110, 4-[1-(benzenesulfonyl)-3-(1-methylpyrazol-4-yl)pyrrolo[3,2-b]pyridin-6-yl]-3,5-dimethyl-isoxazole]

IC50 (MV-4-11) [µM] | pIC50 (bromodomain) | Compound
≤ 1 | > 5.00 | Cc1noc(C)c1-c1cnc2c(-c3cnn(C)c3)cn(S(=O)(=O)c3ccc(F)cc3)c2c1 [P-0123, 4-[1-(4-fluorophenyl)sulfonyl-3-(1-methylpyrazol-4-yl)pyrrolo[3,2-b]pyridin-6-yl]-3,5-dimethyl-isoxazole]
≤ 1 | > 5.00 | CCOC(=O)C(c1ccccc1)n1cc(-c2cnn(C)c2)c2ncc(-c3c(C)noc3C)cc21 (stereo not drawn) [P-0186, ethyl 2-[6-(3,5-dimethylisoxazol-4-yl)-3-(1-methylpyrazol-4-yl)pyrrolo[3,2-b]pyridin-1-yl]-2-phenyl-acetate]
1 to 10 | > 5.00 | Cc1noc(C)c1-c1cnc2c(-c3cnn(C)c3)cn(C(C(=O)O)c3ccccc3)c2c1 (stereo not drawn) [P-0206, 2-[6-(3,5-dimethylisoxazol-4-yl)-3-(1-methylpyrazol-4-yl)pyrrolo[3,2-b]pyridin-1-yl]-2-phenyl-acetic acid]
≤ 1 | > 5.00 | C=CCn1cc(-c2cn(S(=O)(=O)CC3CC3)c3cc(-c4c(C)noc4C)cnc23)cn1 [P-0140, 4-[3-(1-allylpyrazol-4-yl)-1-(cyclopropylmethylsulfonyl)pyrrolo[3,2-b]pyridin-6-yl]-3,5-dimethyl-isoxazole]
1 to 10 | > 5.00 | Cc1noc(C)c1-c1cnc2[nH]cc([S+]([O-])c3cccc(F)c3)c2c1 (stereo not drawn) [P-0142, 4-[3-(3-fluorophenyl)sulfinyl-1H-pyrrolo[2,3-b]pyridin-5-yl]-3,5-dimethyl-isoxazole]
1 to 10 | > 5.00 | Cc1noc(C)c1-c1cnc2[nH]cc(C(=O)C3CCC(F)(F)CC3)c2c1 [P-0031, (4,4-difluorocyclohexyl)-[5-(3,5-dimethylisoxazol-4-yl)-1H-pyrrolo[2,3-b]pyridin-3-yl]methanone]
≤ 1 | > 5.00 | Cc1noc(C)c1-c1cnc2c(C#CCF)cn(S(=O)(=O)C3CCCC3)c2c1 [P-0158, 4-[1-cyclopentylsulfonyl-3-(3-fluoroprop-1-ynyl)pyrrolo[3,2-b]pyridin-6-yl]-3,5-dimethyl-isoxazole]
≤ 1 | > 5.00 | Cc1noc(C)c1-c1cnc2ccn(S(=O)(=O)C3CCCCC3)c2c1 [P-0066, 4-(1-cyclohexylsulfonylpyrrolo [3,2-b]pyridin-6-yl)-3,5-dimethyl-isoxazole]
≤ 1 | > 5.00 | Cc1noc(C)c1-c1cnc2c(-c3cnn(C)c3)cn(Cc3c(F)cccc3F)c2c1 [P-0173, 4-[1-[(2,6-difluorophenyl)methyl]-3-(1-methylpyrazol-4-yl)pyrrolo[3,2-b]pyridin-6-yl]-3,5-dimethyl-isoxazole]
≤ 1 | > 5.00 | COC(c1ccc(C(F)(F)F)nc1)c1c[nH]c2ncc(-c3c(C)noc3C)cc12 (stereo not drawn) [P-0013, 4-[3-[methoxy-[6-(trifluoromethyl)-3-pyridyl]methyl]-1H-pyrrolo[2,3-b]pyridin-5-yl]-3,5-dimethyl-isoxazole]
≤ 1 | > 5.00 | Cc1noc(C)c1-c1cnc2c(-c3cnn(C)c3)cn(C(CF)c3ccccc3)c2c1 (stereo not drawn) [P-0187, 4-[1-(2-fluoro-1-phenyl-ethyl)-3-(1-methylpyrazol-4-yl)pyrrolo[3,2-b]pyridin-6-yl]-3,5-dimethyl-isoxazole]
≤ 1 | > 5.00 | Cc1noc(C)c1-c1cnc2[nH]cc(C(c3ccc(F)cc3)C3CC3)c2c1 (stereo not drawn) [P-0064, 4-[3-[cyclopropyl-(4-fluorophenyl)methyl]-1H-pyrrolo[2,3-b]pyridin-5-yl]-3,5-dimethyl-isoxazole]
1 to 10 | > 5.00 | CCc1[nH]c2ncc(-c3c(C)noc3C)cc2c1Cc1ccccc1Cl [P-0049, 4-[3-[(2-chlorophenyl)methyl]-2-ethyl-1H-pyrrolo[2,3-b]pyridin-5-yl]-3,5-dimethyl-isoxazole]
≤ 1 | > 5.00 | Cc1noc(C)c1-c1cnc2c(-c3cnn(C)c3)cn(Cc3ccccn3)c2c1 [P-0198, 3,5-dimethyl-4-[3-(1-methylpyrazol-4-yl)-1-(2-pyridylmethyl)pyrrolo[3,2-b]pyridin-6-yl]isoxazole]
≤ 1 | > 5.00 | Cc1noc(C)c1-c1cnc2c(I)cn(S(=O)(=O)c3ccccc3)c2c1 [P-0076, 4-[1-(benzenesulfonyl)-3-iodo-pyrrolo[3,2-b]pyridin-6-yl]-3,5-dimethyl-isoxazole]
1 to 10 | > 5.00 | Cc1noc(C)c1-c1cnc2[nH]cc(Sc3cccc(F)c3)c2c1 [P-0141, 4-[3-(3-fluorophenyl)sulfanyl-1H-pyrrolo[2,3-b]pyridin-5-yl]-3,5-dimethyl-isoxazole]
